Experiments:
PI3K alpha = PI3K alpha (Homo sapiens (Human), UniProt P42336); assay: Biochemical assay for PI3Kalpha (Kinase-Glo format); conditions: enzymatic assay
Method: 1.1 Generation of Gene Constructs, Protein Expression and Purification
For the enzymatic assays, the preparation of PI3K gene constructs, protein expression and purification for HTS are described in WO2012/004299.
1.2 Biochemical Assays for PI3Kalpha, PI3Kbeta (Kinase-Glo Format)
The kinase reaction is performed in a final volume of 50 μl per well of a half area COSTAR, 96 well plate. The final concentrations of ATP and phosphatidyl inositol in the assay are 5 μM and 6 μg/mL, respectively. The reaction is started by the addition of PI3 kinase, e.g. PI3 kinase α.
The components of the assay are added per well as follows: • 10 μl test compound in 5% DMSO per well in […]. • Total activity is determined by addition 10 μl of 5% vol/vol DMSO in the first 4 wells of column 1 and the last 4 wells of column 12. • The background is determined by addition of 10 μM control compound to the last 4 wells of column 1 and the first 4 wells of column 12. • 2 mL ‘Assay mix’ are prepared per plate: • 1.912 mL of HEPES assay buffer • 8.33 μl of 3 mM stock of ATP giving a final concentration of 5 μM per well • 1 μl of [^33P]ATP on the activity date giving 0.05 μCi per well • 30 μl of 1 mg/mL PI stock giving a final concentration of 6 μg/mL per well • 5 μl of 1 M stock MgCl2 giving a final concentration of 1 mM per well • 20 μl of the assay mix are added per well. • 2 mL ‘Enzyme mix’ are prepared per plate (x* μl PI3 kinase p110α in 2 mL of kinase buffer). The ‘Enzyme mix’ is kept on ice during addition to the assay plates. * The volume of enzyme is dependent on the enzymatic activity of the batch in use. • 20 μl ‘Enzyme mix’ are added/well to start the reaction. • The plate is then incubated at room temperature for 90 minutes. • The reaction is terminated by the addition of 50 μl WGA-SPA bead (wheat germ agglutinin-coated Scintillation Proximity Assay beads) suspension per well. • The assay plate is sealed using TopSeal-S (heat seal for polystyrene microplates, PerkinElmer LAS [Deutschland] GmbH, Rodgau, Germany) and incubated at room temperature for at least 60 minutes. • The assay plate is then centrifuged at 1500 rpm for 2 minutes using the Jouan bench top centrifuge (Jouan Inc., Nantes, France). • The assay plate is counted using a Packard TopCount, each well being counted for 20 seconds.
In a more preferred assay, the kinase reaction is performed in a final volume of 10 μl per well of a low volume non-binding CORNING, 384 well black plate (Cat. No. #3676). The final concentrations of ATP and phosphatidyl inositol (PI) in the assay are 1 μM and 10 μg/mL, respectively. The reaction is started by the addition of ATP.
The components of the assay are added per well as follows: […]

[1] = biological target: human phosphoinositide-3 kinase (PI3K) alpha (Homo sapiens (Human), UniProt P42336); assay: PI3K-mediated Akt 1/2 (S473) phosphorylation in Rat-1 cells overexpressing PI3K alpha; type: cell-based, rat cells expressing human PI3K alpha; conditions: cellular assay, p-AKT(Ser473), read-out: Cell PI3K alpha IC50
human phosphoinositide-3 kinase (PI3K) alpha, sequence (P42336 whole entry): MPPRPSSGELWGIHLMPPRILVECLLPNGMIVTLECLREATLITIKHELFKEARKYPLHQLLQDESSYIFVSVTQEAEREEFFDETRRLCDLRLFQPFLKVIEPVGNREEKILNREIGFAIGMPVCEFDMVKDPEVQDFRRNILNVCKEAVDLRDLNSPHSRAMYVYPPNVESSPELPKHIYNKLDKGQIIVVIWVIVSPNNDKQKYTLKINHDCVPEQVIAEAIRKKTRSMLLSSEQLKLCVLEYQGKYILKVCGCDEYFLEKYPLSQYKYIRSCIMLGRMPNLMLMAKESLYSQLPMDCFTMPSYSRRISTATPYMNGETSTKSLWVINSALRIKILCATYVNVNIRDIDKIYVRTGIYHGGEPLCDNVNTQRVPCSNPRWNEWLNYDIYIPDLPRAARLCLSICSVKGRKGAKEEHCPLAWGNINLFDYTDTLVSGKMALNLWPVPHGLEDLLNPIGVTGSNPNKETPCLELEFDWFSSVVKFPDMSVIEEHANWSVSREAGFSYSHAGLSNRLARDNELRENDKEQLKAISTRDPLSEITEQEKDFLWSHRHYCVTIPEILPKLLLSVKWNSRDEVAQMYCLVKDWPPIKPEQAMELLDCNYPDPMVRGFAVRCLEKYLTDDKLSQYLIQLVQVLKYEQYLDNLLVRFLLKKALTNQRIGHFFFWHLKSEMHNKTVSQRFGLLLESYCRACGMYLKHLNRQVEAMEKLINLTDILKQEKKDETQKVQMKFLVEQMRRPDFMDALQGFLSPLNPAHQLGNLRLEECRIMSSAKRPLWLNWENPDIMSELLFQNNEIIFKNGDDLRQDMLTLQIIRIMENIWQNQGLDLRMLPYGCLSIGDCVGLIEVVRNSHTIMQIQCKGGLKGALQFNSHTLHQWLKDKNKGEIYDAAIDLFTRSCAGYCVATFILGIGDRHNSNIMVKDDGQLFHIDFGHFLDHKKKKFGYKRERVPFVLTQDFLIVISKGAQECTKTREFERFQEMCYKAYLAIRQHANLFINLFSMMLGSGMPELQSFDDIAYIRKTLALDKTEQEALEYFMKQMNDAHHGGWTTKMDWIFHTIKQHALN
human phosphoinositide-3 kinase (PI3K) alpha, sequence (Q63787 whole entry partner): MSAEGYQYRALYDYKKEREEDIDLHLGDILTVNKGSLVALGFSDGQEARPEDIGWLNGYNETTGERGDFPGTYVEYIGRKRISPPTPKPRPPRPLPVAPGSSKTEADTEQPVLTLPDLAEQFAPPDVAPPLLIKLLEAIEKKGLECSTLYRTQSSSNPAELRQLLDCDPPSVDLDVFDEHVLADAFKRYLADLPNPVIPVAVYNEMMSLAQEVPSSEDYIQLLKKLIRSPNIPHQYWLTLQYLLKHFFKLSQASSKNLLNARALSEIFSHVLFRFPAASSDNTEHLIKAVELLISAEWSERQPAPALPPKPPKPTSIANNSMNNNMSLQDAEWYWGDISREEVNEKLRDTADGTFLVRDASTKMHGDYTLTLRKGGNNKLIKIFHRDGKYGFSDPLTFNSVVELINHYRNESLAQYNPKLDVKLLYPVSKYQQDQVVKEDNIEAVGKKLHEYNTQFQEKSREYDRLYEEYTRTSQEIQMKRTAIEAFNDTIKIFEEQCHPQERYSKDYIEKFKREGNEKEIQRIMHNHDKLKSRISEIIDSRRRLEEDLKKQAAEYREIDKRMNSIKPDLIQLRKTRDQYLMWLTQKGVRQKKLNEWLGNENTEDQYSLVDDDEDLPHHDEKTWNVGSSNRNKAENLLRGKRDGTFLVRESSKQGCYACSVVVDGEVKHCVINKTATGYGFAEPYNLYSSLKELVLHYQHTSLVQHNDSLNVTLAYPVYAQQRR

PI3K alpha, sequence (P42336 21-1068): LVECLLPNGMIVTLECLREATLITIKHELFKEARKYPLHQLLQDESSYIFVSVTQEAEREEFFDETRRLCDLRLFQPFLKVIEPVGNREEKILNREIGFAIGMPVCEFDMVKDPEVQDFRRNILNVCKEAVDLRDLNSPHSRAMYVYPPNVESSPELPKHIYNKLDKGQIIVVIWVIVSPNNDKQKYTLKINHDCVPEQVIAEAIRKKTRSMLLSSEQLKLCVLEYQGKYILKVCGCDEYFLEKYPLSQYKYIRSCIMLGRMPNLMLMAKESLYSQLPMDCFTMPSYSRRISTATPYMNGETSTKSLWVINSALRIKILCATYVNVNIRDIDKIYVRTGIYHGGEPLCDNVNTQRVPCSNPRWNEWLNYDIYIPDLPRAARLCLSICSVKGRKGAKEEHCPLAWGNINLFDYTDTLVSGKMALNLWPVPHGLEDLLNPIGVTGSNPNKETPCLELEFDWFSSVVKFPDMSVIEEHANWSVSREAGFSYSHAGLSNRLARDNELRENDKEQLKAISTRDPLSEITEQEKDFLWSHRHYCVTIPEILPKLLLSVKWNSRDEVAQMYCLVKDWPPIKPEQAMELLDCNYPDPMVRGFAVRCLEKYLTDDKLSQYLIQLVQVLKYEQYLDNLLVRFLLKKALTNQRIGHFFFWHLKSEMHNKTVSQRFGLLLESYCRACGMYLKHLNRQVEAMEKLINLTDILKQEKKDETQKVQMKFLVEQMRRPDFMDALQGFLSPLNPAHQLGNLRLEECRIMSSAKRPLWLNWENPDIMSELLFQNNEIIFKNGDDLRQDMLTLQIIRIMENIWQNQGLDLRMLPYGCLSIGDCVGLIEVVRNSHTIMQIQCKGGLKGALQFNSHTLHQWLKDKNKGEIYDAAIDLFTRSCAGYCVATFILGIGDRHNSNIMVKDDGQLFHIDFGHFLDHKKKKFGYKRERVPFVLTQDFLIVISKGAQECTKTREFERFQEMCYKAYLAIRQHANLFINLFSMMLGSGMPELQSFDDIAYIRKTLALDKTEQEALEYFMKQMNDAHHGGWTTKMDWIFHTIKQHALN
PI3K alpha, sequence (P27986 461-568 partner): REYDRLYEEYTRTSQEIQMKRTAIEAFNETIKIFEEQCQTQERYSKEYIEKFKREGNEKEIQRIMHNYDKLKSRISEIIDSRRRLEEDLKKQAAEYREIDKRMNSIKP

| Compound | IC50 (PI3K alpha) [nM] | IC50 [1] [nM] |
| --- | --- | --- |
| Cc1nc(N)nc(N2C[C@@H](F)C[C@H]2c2nc3cccc(-c4cnn(C)c4)c3c(=O)n2-c2ccccc2)c1C#N [Example 30, 2-Amino-4-((2S,4S)-4-fluoro-2-(5-(1-methyl-1H-pyrazol-4-yl)-4-oxo-3-phenyl-3,4-dihydroquinazolin-2-yl)pyrrolidin-1-yl)-6-methylpyrimidine-5-carbonitrile] | 450 | 2300 |
| Cc1nc(N)nc(N2C[C@@H](O)C[C@H]2c2nc3ccc(F)c(-c4cn(C)cn4)c3c(=O)n2-c2ccccc2)c1C#N [Example 31, 2-Amino-4-((2S,4S)-2-(6-fluoro-5-(1-methyl-1H-imidazol-4-yl)-4-oxo-3-phenyl-3,4-dihydroquinazolin-2-yl)-4-hydroxypyrrolidin-1-yl)-6-methylpyrimidine-5-carbonitrile] | 570 | > 10000 |
| CCOc1ncc(-c2cccc3nc([C@@H]4CCCN4c4nc(N)nc(C)c4C#N)n(-c4ccccc4)c(=O)c23)cn1 [Example 32, (S)-2-Amino-4-(2-(5-(2-ethoxypyrimidin-5-yl)-4-oxo-3-phenyl-3,4-dihydroquinazolin-2-yl)pyrrolidin-1-yl)-6-methylpyrimidine-5-carbonitrile] | 490 | 2400 |
| N#Cc1c(N)ncnc1N1CCC[C@H]1c1nc2cccc(C#CCO)c2c(=O)n1-c1ccccc1 [Example 33, (S)-4-Amino-6-(2-(5-(3-hydroxyprop-1-yn-1-yl)-4-oxo-3-phenyl-3,4-dihydroquinazolin-2-yl)pyrrolidin-1-yl)pyrimidine-5-carbonitrile] | 620 | 6500 |
